The values below come from patent publication US20080200454A1, “CARBON-LINKED TETRAHYDRO-PYRAZOLO-PYRIDINE MODULATORS OF CATHEPSIN S” (priority 2007, published 2008).

SMILES strings stand for the structures.

The IC50 is the point on the concentration scale where inhibition reaches its midpoint.

In the first assay the target is Recombinant human cathepsin S (CatS) (Homo sapiens, UniProt P25774). Kind of assay: Recombinant human cathepsin S (CatS) inhibition assay, fluorogenic substrate Z-Valine-Valine-Arginine-AMC.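 Further: Baculovirus-expressed CatS in pH 5.0 sodium acetate buffer with DTT and NaCl, fluorescence read each minute over 20 min, inhibition derived from rate slope.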
Recombinant human cathepsin S (CatS), sequence (P25774 115-331): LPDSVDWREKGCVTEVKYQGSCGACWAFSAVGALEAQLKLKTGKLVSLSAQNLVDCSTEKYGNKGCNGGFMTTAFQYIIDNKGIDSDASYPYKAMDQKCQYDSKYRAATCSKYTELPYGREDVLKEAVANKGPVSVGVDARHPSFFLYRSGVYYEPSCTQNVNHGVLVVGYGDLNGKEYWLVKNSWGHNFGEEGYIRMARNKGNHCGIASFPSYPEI
Details: not given
Regarding `CS(=O)(=O)N1CCc2c(c(-c3ccc(Cl)c(C#Cc4ccc5c(c4)CN[C@@H](C(=O)O)C5)c3)nn2CCCN2CCOCC2)C1` [Example 202, (3R)-7-({2-Chloro-5-[5-(methylsulfonyl)-1-(3-morpholin-4-ylpropyl)-4,5,6,7-tetrahydro-1H-pyrazolo[4,3-c]pyridin-3-yl]phenyl}ethynyl)-1,2,3,4-tetrahydroisoquinoline-3-carboxylic acid], the IC50 is 390 nM. The same measure, in the same setting: to `COC(=O)C1Cc2cc(C#Cc3cc(-c4nn(CCCN5CCOCC5)c5c4CN(S(C)(=O)=O)CC5)ccc3Cl)ccc2CN1C(=O)OC(C)(C)C` (stereo not shown) [Example 203, 2-(1,1-Dimethylethyl) 3-methyl 6-({2-chloro-5-[5-(methylsulfonyl)-1-(3-morpholin-4-ylpropyl)-4,5,6,7-tetrahydro-1H-pyrazolo[4,3-c]pyridin-3-yl]phenyl}ethynyl)-3,4-dihydroisoquinoline-2,3(1H)-dicarboxylate] belongs 570 nM; to `CS(=O)(=O)N1CCc2c(c(-c3ccc(Cl)c(C#Cc4ccc5c(c4)CC(C(=O)N4CCCCC4)NC5)c3)nn2CCCN2CCOCC2)C1` (stereo not shown) [Example 204, 6-({2-Chloro-5-[5-(methylsulfonyl)-1-(3-morpholin-4-ylpropyl)-4,5,6,7-tetrahydro-1H-pyrazolo[4,3-c]pyridin-3-yl]phenyl}ethynyl)-3-(piperidin-1-ylcarbonyl)-1,2,3,4-tetrahydroisoquinoline], 120 nM; to `COC(=O)C1Cc2cc(C#Cc3cc(-c4nn(CCCN5CCOCC5)c5c4CN(S(C)(=O)=O)CC5)ccc3Cl)ccc2CN1` (stereo not shown) [Example 205, Methyl 6-({2-chloro-5-[5-(methylsulfonyl)-1-(3-morpholin-4-ylpropyl)-4,5,6,7-tetrahydro-1H-pyrazolo[4,3-c]pyridin-3-yl]phenyl}ethynyl)-1,2,3,4-tetrahydroisoquinoline-3-carboxylate], 270 nM.

For `CS(=O)(=O)N1CCc2c(c(-c3ccc(Cl)c(C#Cc4ccc5c(c4)CC(CO)NC5)c3)nn2CCCN2CCOCC2)C1` (stereo not shown) [Example 206, [6-({2-Chloro-5-[5-(methylsulfonyl)-1-(3-morpholin-4-ylpropyl)-4,5,6,7-tetrahydro-1H-pyrazolo[4,3-c]pyridin-3-yl]phenyl}ethynyl)-1,2,3,4-tetrahydroisoquinolin-3-yl]methanol], the IC50 worked out at 210 nM. The same measure, in the same setting: next, `COC(=O)C1c2ccc(C#Cc3cc(-c4nn(CCCN5CCOCC5)c5c4CN(S(C)(=O)=O)CC5)ccc3Cl)cc2CCN1C(=O)OC(C)(C)C` (stereo not shown) [Example 207, 2-(1,1-Dimethylethyl) 1-methyl 6-({2-chloro-5-[5-(methylsulfonyl)-1-(3-morpholin-4-ylpropyl)-4,5,6,7-tetrahydro-1H-pyrazolo[4,3-c]pyridin-3-yl]phenyl}ethynyl)-3,4-dihydroisoquinoline-1,2(1H)-dicarboxylate]: 2860 nM. On to `COC(=O)C1NCCc2cc(C#Cc3cc(-c4nn(CCCN5CCOCC5)c5c4CN(S(C)(=O)=O)CC5)ccc3Cl)ccc21` (stereo not shown) [Example 208, Methyl 6-({2-chloro-5-[5-(methylsulfonyl)-1-(3-morpholin-4-ylpropyl)-4,5,6,7-tetrahydro-1H-pyrazolo[4,3-c]pyridin-3-yl]phenyl}ethynyl)-1,2,3,4-tetrahydroisoquinoline-1-carboxylate], for which the concentration for half-maximal inhibition (IC50) was 3130 nM.

In the case of `COC(=O)[C@H](NCc1ccc(C#Cc2cc(-c3nn(CCCN4CCOCC4)c4c3CN(S(C)(=O)=O)CC4)ccc2Cl)cc1)c1ccccc1` [Example 211, Methyl (2R)-({[4-({2-chloro-5-[5-(methylsulfonyl)-1-(3-morpholin-4-ylpropyl)-4,5,6,7-tetrahydro-1H-pyrazolo[4,3-c]pyridin-3-yl]phenyl}ethynyl)phenyl]methyl}amino)(phenyl)ethanoate], the IC50 was found to be 110 nM. On the same count and under the same terms, next, `CS(=O)(=O)N1CCc2c(c(-c3ccc(Cl)c(C#Cc4ccc(CNCc5ccc(Cl)c(Cl)c5)cc4)c3)nn2CCCN2CCOCC2)C1` [Example 212, 1-[4-({2-Chloro-5-[5-(methylsulfonyl)-1-(3-morpholin-4-ylpropyl)-4,5,6,7-tetrahydro-1H-pyrazolo[4,3-c]pyridin-3-yl]phenyl}ethynyl)phenyl]-N-[(3,4-dichlorophenyl)methyl]methanamine]: 80 nM; `CS(=O)(=O)N1CCc2c(c(-c3ccc(Cl)c(C#Cc4ccc(CN[C@H](CO)c5ccccc5)cc4)c3)nn2CCCN2CCN(c3ccccn3)CC2)C1` [Example 218, (2S)-2-[({4-[(2-Chloro-5-{5-(methylsulfonyl)-1-[3-(4-pyridin-2-ylpiperazin-1-yl)propyl]-4,5,6,7-tetrahydro-1H-pyrazolo[4,3-c]pyridin-3-yl}phenyl)ethynyl]phenyl}methyl)amino]-2-phenylethanol]: 30 nM; `CC(NCc1ccc(C#Cc2cc(-c3nn(CCCN4CCN(c5ccccn5)CC4)c4c3CN(S(C)(=O)=O)CC4)ccc2Cl)cc1)c1ccccc1` (stereo not shown) [Example 219, N-({4-[(2-Chloro-5-{5-(methylsulfonyl)-1-[3-(4-pyridin-2-ylpiperazin-1-yl)propyl]-4,5,6,7-tetrahydro-1H-pyrazolo[4,3-c]pyridin-3-yl}phenyl)ethynyl]phenyl}methyl)-1-phenylethanamine]: 40 nM. With `CS(=O)(=O)N1CCc2c(c(-c3ccc(Cl)c(C#Cc4ccc5c(c4)CNCC5)c3)nn2CCCN2CCN(c3ccccc3)CC2)C1` [Example 225, 7-[(2-Chloro-5-{5-(methylsulfonyl)-1-[3-(4-phenylpiperazin-1-yl)propyl]-4,5,6,7-tetrahydro-1H-pyrazolo[4,3-c]pyridin-3-yl}phenyl)ethynyl]-1,2,3,4-tetrahydroisoquinoline], the IC50 was found to be 10 nM.

Take `CN1CCc2ccc(C#Cc3cc(-c4nn(CCCN5CCN(c6ccccc6)CC5)c5c4CN(S(C)(=O)=O)CC5)ccc3Cl)cc2C1` [Example 226, 7-[(2-Chloro-5-{5-(methylsulfonyl)-1-[3-(4-phenylpiperazin-1-yl)propyl]-4,5,6,7-tetrahydro-1H-pyrazolo[4,3-c]pyridin-3-yl}phenyl)ethynyl]-2-methyl-1,2,3,4-tetrahydroisoquinoline]: the IC50 worked out at 30 nM. Still for that read-out and setting: next, `CS(=O)(=O)N1CCc2c(c(-c3ccc(Cl)c(CCc4ccc5c(c4)CNCC5)c3)nn2CCCN2CCCCC2)C1` [Example 228, 7-(2-{2-Chloro-5-[5-(methylsulfonyl)-1-(3-piperidin-1-ylpropyl)-4,5,6,7-tetrahydro-1H-pyrazolo[4,3-c]pyridin-3-yl]phenyl}ethyl)-1,2,3,4-tetrahydroisoquinoline]: 90 nM.

Still in this assay, the particulars now being: CatS IC50.
For the compound `COC(=O)[C@H]1Cc2ccc(C#Cc3cc(-c4nn(CCCN5CCOCC5)c5c4CN(S(C)(=O)=O)CC5)ccc3Cl)cc2CN1` [Example 200, Methyl (3R)-7-({2-chloro-5-[5-(methylsulfonyl)-1-(3-morpholin-4-ylpropyl)-4,5,6,7-tetrahydro-1H-pyrazolo[4,3-c]pyridin-3-yl]phenyl}ethynyl)-1,2,3,4-tetrahydroisoquinoline-3-carboxylate], the IC50 came out at 90 nM. The same measure, in the same setting: to `CS(=O)(=O)N1CCc2c(c(-c3ccc(Cl)c(C#Cc4ccc5c(c4)CN[C@@H](CO)C5)c3)nn2CCCN2CCOCC2)C1` [Example 201, [(3R)-7-({2-Chloro-5-[5-(methylsulfonyl)-1-(3-morpholin-4-ylpropyl)-4,5,6,7-tetrahydro-1H-pyrazolo[4,3-c]pyridin-3-yl]phenyl}ethynyl)-1,2,3,4-tetrahydroisoquinolin-3-yl]methanol] belongs 190 nM. Same read-out and setting: to `CS(=O)(=O)N1CCc2c(c(-c3ccc(Cl)c(C#Cc4ccc(CN[C@@H](CO)c5ccccc5)cc4)c3)nn2CCCN2CCOCC2)C1` [Example 209, (2R)-2-({[4-({2-Chloro-5-[5-(methylsulfonyl)-1-(3-morpholin-4-ylpropyl)-4,5,6,7-tetrahydro-1H-pyrazolo[4,3-c]pyridin-3-yl]phenyl}ethynyl)phenyl]methyl}amino)-2-phenylethanol] belongs 100 nM; to `CS(=O)(=O)N1CCc2c(c(-c3ccc(Cl)c(C#Cc4ccc(CN[C@@H]5Cc6ccccc6[C@@H]5O)cc4)c3)nn2CCCN2CCN(c3ccccn3)CC2)C1` [Example 213, (1S,2R)-2-[({4-[(2-Chloro-5-{5-(methylsulfonyl)-1-[3-(4-pyridin-2-ylpiperazin-1-yl)propyl]-4,5,6,7-tetrahydro-1H-pyrazolo[4,3-c]pyridin-3-yl}phenyl)ethynyl]phenyl}methyl)amino]-2,3-dihydro-1H-inden-1-ol], 20 nM. On the same count and under the same terms, next, `CS(=O)(=O)N1CCc2c(c(-c3ccc(Cl)c(C#Cc4ccc(CN[C@H]5CCCc6ccccc65)cc4)c3)nn2CCCN2CCN(c3ccccn3)CC2)C1` [Example 216, (1S)—N-({4-[(2-Chloro-5-{5-(methylsulfonyl)-1-[3-(4-pyridin-2-ylpiperazin-1-yl)propyl]-4,5,6,7-tetrahydro-1H-pyrazolo[4,3-c]pyridin-3-yl}phenyl)ethynyl]phenyl}methyl)-1,2,3,4-tetrahydronaphthalen-1-amine]: 70 nM; `C[C@@H]1COCCN1CCCn1nc(-c2ccc(Cl)c(C#Cc3ccc(Cl)c(CNCCCO)c3)c2)c2c1CCN(C(N)=O)C2` [Example 222, 3-(4-Chloro-3-{4-chloro-3-[(3-hydroxy-propylamino)-methyl]-phenylethynyl}-phenyl)-1-[3-(3-methyl-morpholin-4-yl)-propyl]-1,4,6,7-tetrahydro-pyrazolo[4,3-c]pyridine-5-carboxylic acid amide]: 20 nM; `CC(=O)NC1CCN(CCCn2nc(-c3ccc(Cl)c(C#Cc4ccc5c(c4)CNCC5)c3)c3c2CCN(S(C)(=O)=O)C3)CC1` [Example 227, N-[1-(3-{3-[4-Chloro-3-(1,2,3,4-tetrahydroisoquinolin-7-ylethynyl)phenyl]-5-(methylsulfonyl)-4,5,6,7-tetrahydro-1H-pyrazolo[4,3-c]pyridin-1-yl}propyl)piperidin-4-yl]acetamide]: 40 nM.

As for `CS(=O)(=O)N1CCc2c(c(-c3ccc(Cl)c(CCc4ccc5c(c4)CNCC5)c3)nn2CCCN2CCN(C3CC3)CC2)C1` [Example 229, 7-[2-(2-Chloro-5-{1-[3-(4-cyclopropylpiperazin-1-yl)propyl]-5-(methylsulfonyl)-4,5,6,7-tetrahydro-1H-pyrazolo[4,3-c]pyridin-3-yl}phenyl)ethyl]-1,2,3,4-tetrahydroisoquinoline], the IC50 worked out at 90 nM.
